ChEMBL document CHEMBL3856215, “Design and synthesis of N-(5-chloro-2,4-dihydroxybenzoyl)-(R)-1,2,3,4-tetrahydroisoquinoline-3-carboxamides as novel Hsp90 inhibitors” (Eur J Med Chem, 2016)
pIC50: −log10 of the molar value. Active and inactive are the calls of the source. The calls are words filed in the database; no cut-off is given here.

How the values were obtained:
[1] = Antiproliferative activity against human MDA-MB-231 cells after 72 hrs by SRB assay; format: functional, cell-based; conditions: MDA-MB-231, 72 h
[2] = Antiproliferative activity against human HeLa cells after 72 hrs by SRB assay; format: functional, cell-based
[3] = molecular target: T1, Heat shock protein HSP90 (Homo sapiens) (UniProt P07900+P08238); experiment: Inhibition of Hsp90 in human MDA-MB-231 cells assessed as upregulation of Hsp70 expression after 24 hrs by Western blot analysis; format: cell-based
[4] = molecular target: Heat shock protein HSP 90-alpha (Homo sapiens) (UniProt P07900); experiment: Induction of thermal stabilization of Hsp90alpha in human 293T cells at 10 uM preincubated for 3 hrs followed by […] at 37 to 61 degC and subsequently […] at room temperature by Western blot method; format: cell-based
[5] = molecular target: T1, Heat shock protein HSP90 (Homo sapiens); experiment: Inhibition of Hsp90 in human MDA-MB-231 cells assessed as downregulation of C-raf expression after 24 hrs by Western blot analysis; format: cell-based
[6] = molecular target: T1, Heat shock protein HSP90 (Homo sapiens); experiment: Inhibition of Hsp90 in human MDA-MB-231 cells assessed as downregulation of Cdc-2 expression after 24 hrs by Western blot analysis; format: cell-based
[7] = molecular target: Heat shock protein HSP 90-alpha (Homo sapiens) (UniProt P07900); experiment: Induction of thermal stabilization of Hsp90alpha in human 293T cells preincubated for 3 hrs followed by […] at 55 degC and subsequently […] at room temperature by Western blot method; format: cell-based
[8] = molecular target: T1, Heat shock protein HSP90 (Homo sapiens); experiment: Inhibition of Hsp90 in human MDA-MB-231 cells assessed as downregulation of CDK4 expression after 24 hrs by Western blot analysis; format: cell-based
[9] = molecular target: T1, Heat shock protein HSP90 (Homo sapiens); experiment: Inhibition of Hsp90 in human MDA-MB-231 cells assessed as downregulation of Her2 expression after 24 hrs by Western blot analysis; format: cell-based

SMILES | pIC50 [1] | pIC50 [2] | also measured
CCCNC(=O)[C@@H]1Cc2ccccc2CN1C(=O)c1cc(Cl)c(O)cc1O | 5.27 | 5.12 | –
O=C([C@@H]1Cc2ccccc2CN1C(=O)c1cc(Cl)c(O)cc1O)N1CCCC1 | 5.10 | 5.01 | –
CCNC(=O)[C@H]1Cc2ccccc2CN1C(=O)c1cc(Cl)c(O)cc1O | 5.34 | 5.34 | –
CCN(CC)C(=O)[C@@H]1Cc2ccccc2CN1C(=O)c1cc(Cl)c(O)cc1O | 5.21 | 5.11 | –
O=C([C@H]1Cc2ccccc2CN1C(=O)c1cc(Cl)c(O)cc1O)N1CCCCC1 | 5.79 | 5.46 | –
CC(C)NC(=O)[C@@H]1Cc2ccccc2CN1C(=O)c1cc(Cl)c(O)cc1O | 5.24 | 5.15 | –
O=C(Nc1ccccc1)[C@@H]1Cc2ccccc2CN1C(=O)c1cc(Cl)c(O)cc1O | < 5.00 | < 5.00 | –
CNC(=O)[C@@H]1Cc2ccccc2CN1C(=O)c1cc(Cl)c(O)cc1O | 5.03 | < 5.00 | –
CNC(=O)[C@H]1Cc2ccccc2CN1C(=O)c1cc(Cl)c(O)cc1O | 5.03 | 5.12 | –
O=C(NCc1ccccc1)[C@@H]1Cc2ccccc2CN1C(=O)c1cc(Cl)c(O)cc1O | 5.39 | 5.34 | –
COC1=C2C[C@@H](C)C[C@H](OC)[C@H](O)[C@@H](C)/C=C(\C)[C@H](OC(N)=O)[C@@H](OC)/C=C\C=C(/C)C(=O)NC(=CC1=O)C2=O [GELDANAMYCIN] | 7.52 | 7.22 | –
CCNC(=O)[C@@H]1Cc2ccccc2CN1C(=O)c1cc(Cl)c(O)cc1O | 5.41 | 5.29 | –
O=C(NCCc1ccccc1)[C@H]1Cc2ccccc2CN1C(=O)c1cc(Cl)c(O)cc1O | 5.58 | 5.32 | –
O=C(NCCc1ccccc1)[C@@H]1Cc2ccccc2CN1C(=O)c1cc(Cl)c(O)cc1O | 5.04 | < 5.00 | –
CCCNC(=O)[C@H]1Cc2ccccc2CN1C(=O)c1cc(Cl)c(O)cc1O | 5.59 | 5.40 | –
O=C(NCc1ccccc1)[C@H]1Cc2ccccc2CN1C(=O)c1cc(Cl)c(O)cc1O | 6.01 | 5.76 | inhibition [3]: Dose-dependent effect; Activity [4]: Active; inhibition [5]: Dose-dependent effect; inhibition [6]: Dose-dependent effect; Activity [7]: Dose-dependent effect; inhibition [8]: Dose-dependent effect; inhibition [9]: Dose-dependent effect
O=C(NC1CCCCC1)[C@H]1Cc2ccccc2CN1C(=O)c1cc(Cl)c(O)cc1O | 5.69 | 5.45 | –
C=CCNC(=O)[C@@H]1Cc2ccccc2CN1C(=O)c1cc(Cl)c(O)cc1O | 5.17 | 5.15 | –
O=C(NC1CCCC1)[C@H]1Cc2ccccc2CN1C(=O)c1cc(Cl)c(O)cc1O | 5.45 | 5.27 | –
O=C([C@@H]1Cc2ccccc2CN1C(=O)c1cc(Cl)c(O)cc1O)N1CCCCC1 | 5.02 | 5.05 | –
C=CCNC1=C2C[C@@H](C)C[C@H](OC)[C@H](O)[C@@H](C)/C=C(\C)[C@H](OC(N)=O)[C@@H](OC)/C=C\C=C(/C)C(=O)NC(=CC1=O)C2=O [TANESPIMYCIN] | 6.28 | 6.70 | –
O=C(NC1CCCCC1)[C@@H]1Cc2ccccc2CN1C(=O)c1cc(Cl)c(O)cc1O | 5.14 | 5.27 | –
O=C(Nc1ccccc1)[C@H]1Cc2ccccc2CN1C(=O)c1cc(Cl)c(O)cc1O | 5.72 | 5.57 | –
C=CCNC(=O)[C@H]1Cc2ccccc2CN1C(=O)c1cc(Cl)c(O)cc1O | 5.67 | 5.51 | –
O=C(NC1CCCC1)[C@@H]1Cc2ccccc2CN1C(=O)c1cc(Cl)c(O)cc1O | < 5.00 | < 5.00 | –
CC(C)NC(=O)[C@H]1Cc2ccccc2CN1C(=O)c1cc(Cl)c(O)cc1O | 5.60 | 5.51 | –
CCN(CC)C(=O)[C@H]1Cc2ccccc2CN1C(=O)c1cc(Cl)c(O)cc1O | 5.65 | 5.31 | –
O=C([C@H]1Cc2ccccc2CN1C(=O)c1cc(Cl)c(O)cc1O)N1CCCC1 | 5.71 | 5.40 | –
